Tests used:
HCC70 cells = assay: Inhibition of cell proliferation, CellTiter-Glo, HCC70; format: cell-based; conditions: Homo sapiens, HCC70, 72 h, Efficacy Example 2 (Table 2), 72 h incubation
Method: (§1) The compounds were each prepared with 100% DMSO into 10 mM mother liquor.
(§2) HCC70 cells and OVCAR3 cells were digested and counted. Cells were diluted to an appropriate concentration according to cell density. 100 μL of cells were added to each well of a 96-well plate. Medium wells served as blank control (Min). The cells were incubated overnight in an incubator at 37° C./5% CO2.
(§3) A 200-fold stock solution of a compound was prepared with DMSO, and the compound was diluted with growth medium to a 3-fold stock solution, i.e., […] of each of 200-fold stock solutions of compound at different concentrations was added to 197 μL of medium. 50 μL of diluted compound was added to each well and the mixture was incubated at 37° C./5% CO2 for 72 h.
(§4) The 96-well plate was equilibrated to room temperature before detection. 40 μL of CellTiter-Glo solution was added to each well. The mixture was mixed for 2 min using a horizontal shaker to induce cell lysis. The mixture was incubated at room temperature for 60 min to stabilize […] signals. Fluorescence values were read on ENVISION.
(§5) (1) Data was analyzed by GraphPad Prism 5
(§6) (2) % inhibition rate=(maximum signal−compound signal)/(maximum signal−minimum signal)×100
(§7) (3) Maximum signal: signal of DMSO well
(§8) (4) Minimum signal: signal of medium well
(§9) The effect of SZ-015200, SZ-015256 and SZ-015268 on cell proliferation after incubation with HCC70, OVCAR-3, HCT116 and HCC1806 cells for 3 days was detected according to the method described in Efficacy Example 2, and the results are shown in Table 3.

OVCAR3 cells = assay: Inhibition of cell proliferation, CellTiter-Glo, OVCAR3; format: cell-based; conditions: Homo sapiens, OVCAR-3, 72 h, Efficacy Example 2 (Table 2), 72 h incubation
Method: as §1, §2, §3, §4, §5, §6, §7, §8, §9

IC50 (OVCAR3 cells) [nM]	SMILES	IC50 (HCC70 cells) [nM]
467	CC(C)c1cnn2c(NCc3ccccc3)cc(NC[C@H]3CCNC[C@@H]3O)nc12 [CT7001, reference compound]	310
620	CCn1cnc2c(NC3CCN(C(=O)O[C@H]4CCN(C(=O)/C=C/CN(C)C)C4)CC3)ccnc21 [SZ-015285, (S,E)-1-(4-(dimethylamino)but-2-enoyl)pyrrolidin-3-yl 4-((3-ethyl-3H-imidazo[4,5-b]pyridin-7-yl)amino)piperidine-1-carboxylate]	1050
167	CC(C)n1cnc2c(NC3CCN(C(=O)O[C@H]4CCN(C(=O)/C=C/CN(C)C)C4)CC3)ccnc21 [SZ-015286, (S,E)-1-(4-(dimethylamino)but-2-enoyl)pyrrolidin-3-yl 4-((3-isopropyl-3H-imidazo[4,5-b]pyridin-7-yl)amino)piperidine-1-carboxylate]	570
72.1	CC#CC(=O)N1CC[C@H](OC(=O)N2CCC(Nc3nc(C)nc4c(C(C)C)cnn34)CC2)C1 [SZ-015294, (S)-1-(but-2-ynoyl)pyrrolidin-3-yl 4-((8-isopropyl-2-methylpyrazolo[1,5-a][1,3,5]triazin-4-yl)amino)piperidine-1-carboxylate]	50.2
168	CC(C)n1cnc2c(NC3CCN(C(=O)O[C@H]4CCN(C(=O)/C=C/CN(C)C)C4)CC3)nc(CO)nc21 [SZ-015297, (S,E)-1-(4-(dimethylamino)but-2-enoyl)pyrrolidin-3-yl-4-((2-(hydroxymethyl)-9-isopropyl-9H-purin-6-yl)amino)piperidine-1-carboxylate]	252
114	CC(C)Nc1cc(NC2CCN(C(=O)O[C@H]3CCN(C(=O)/C=C/CN(C)C)C3)CC2)c2ncn(C(C)C)c2n1 [SZ-015303, (S,E)-1-(4-(dimethylamino)but-2-enoyl)pyrrolidin-3-yl 4-((3-isopropyl-5-(isopropylamino)-3H-imidazo[4,5-b]pyridin-7-yl)amino)piperidine-1-carboxylate]	129
281	CC[C@H](CO)Nc1cc(NC2CCN(C(=O)O[C@H]3CCN(C(=O)/C=C/CN(C)C)C3)CC2)c2ncn(C(C)C)c2n1 [SZ-015306, (S)-1-((E)-4-(dimethylamino)but-2-enoyl)pyrrolidin-3-yl 4-((5-(((R)-1-hydroxybutan-2-yl)amino)-3-isopropyl-3H-imidazo[4,5-b]pyridin-7-yl)amino)piperidine-1-carboxylate]	205
58.4	CCc1nc(NC2CCN(C(=O)O[C@H]3CCN(C(=O)/C=C/CN(C)C)C3)CC2)c2ncn(C(C)C)c2n1 [SZ-015310, (S,E)-1-(4-(dimethylamino)but-2-enoyl)pyrrolidin-3-yl 4-((2-ethyl-9-isopropyl-9H-purin-6-yl)amino)piperidine-1-carboxylate]	29.5
33.2	CC[C@H](CO)Nc1nc(NC2CCN(C(=O)O[C@H]3CCN(C(=O)/C=C/CN(C)C)C3)CC2)n2ncc(C(C)C)c2n1 [SZ-015326, (S)-1-((E)-4-(dimethylamino)but-2-enoyl)pyrrolidin-3-yl 4-((2-(((R)-1-hydroxybutan-2-yl)amino)-8-isopropylpyrazolo[1,5-a][1,3,5]triazin-4-yl)amino)piperidine-1-carboxylate]	50.3
44	CC(C)Nc1nc(NC2CCN(C(=O)O[C@H]3CCN(C(=O)/C=C/CN(C)C)C3)CC2)n2ncc(C(C)C)c2n1 [SZ-015330, (S,E)-1-(4-(dimethylamino)but-2-enoyl)pyrrolidin-3-yl 4-((8-isopropyl-2-(isopropylamino)pyrazolo[1,5-a][1,3,5]triazin-4-yl)amino)piperidine-1-carboxylate]	61

Second part, the molecule before the results:

SMILES	IC50 (OVCAR3 cells) [nM]	IC50 (HCC70 cells) [nM]
Cc1nc(NC2CCN(C(=O)O[C@H]3CCN(C(=O)/C=C/CN(C)C)C3)CC2)c2ncn(C(C)C)c2n1 [SZ-015264, (S,E)-1-(4-(dimethylamino)but-2-enoyl)pyrrolidin-3-yl 4-((9-isopropyl-2-methyl-9H-purin-6-yl)amino)piperidine-1-carboxylate]	234	181
Cc1nc(NC2CCN(C(=O)O[C@@H]3CCN(C(=O)/C=C/CN(C)C)C3)CC2)n2ncc(C(C)C)c2n1 [SZ-015282, (R,E)-1-(4-(dimethylamino)but-2-enoyl)pyrrolidin-3-yl 4-((8-isopropyl-2-methylpyrazolo[1,5-a][1,3,5]triazin-4-yl)amino)piperidine-1-carboxylate]	92.1	82.4
CC#CC(=O)N1CC[C@@H](OC(=O)N2CCC(Nc3cc(C)nc4c3ncn4C(C)C)CC2)C1 [SZ-015284, (R)-1-(but-2-ynoyl)tetrahydropyrrol-3-yl 4-((3-isopropyl-5-methyl-3H-imidazo[4,5-b]pyridin-7-yl)amino)piperidine-1-carboxylate]		97.4
CC#CC(=O)N1CC[C@H](OC(=O)N2CCC(Nc3cc(C)nc4c3ncn4C(C)C)CC2)C1 [SZ-015289, (S)-1-(but-2-ynoyl)tetrahydropyrrol-3-yl 4-((3-isopropyl-5-methyl-3H-imidazo[4,5-b]pyridin-7-yl)amino)piperidine-1-carboxylate]		117
CC[C@H](CO)Nc1nc(NC2CCN(C(=O)O[C@H]3CCN(C(=O)/C=C/CN(C)C)C3)CC2)c2ncn(C(C)C)c2n1 [SZ-015295, (S)-1-((E)-4-(dimethylamino)but-2-enoyl)pyrrolidin-3-yl 4-((2-(((R)-1-hydroxybutan-2-yl)amino)-9-isopropyl-9H-purin-6-yl)amino)piperidine-1-carboxylate]	62.8	110
CC(C)n1cnc2c(NC3CCN(C(=O)O[C@H]4CCN(C(=O)/C=C/CN(C)C)C4)CC3)nc(-c3cn[nH]c3)nc21 [SZ-015298, (S,E)-1-(4-(dimethylamino)but-2-enoyl)pyrrolidin-3-yl 4-((9-isopropyl-2-(1H-pyrazol-4-yl)-9H-purin-6-yl)amino)piperidine-1-carboxylate]		405
Cc1cc(NC2CCN(C(=O)OC3CN(C(=O)/C=C/CN(C)C)C3)CC2)c2ncn(C(C)C)c2n1 [SZ-015307, (E)-1-(4-(dimethylamino)but-2-enoyl)azetidin-3-yl 4-((3-isopropyl-5-methyl-3H-imidazo[4,5-b]pyridin-7-yl)amino)piperidine-1-carboxylate]	139	78
Cc1nc(NC2CCN(C(=O)OC3CN(C(=O)/C=C/CN(C)C)C3)CC2)c2ncn(C(C)C)c2n1 [SZ-015308, (E)-1-(4-(dimethylamino)but-2-enoyl)azetidin-3-yl 4-((9-isopropyl-2-methyl-9H-purin-6-yl)amino)piperidine-1-carboxylate]		92.1
COCCNc1cc(NC2CCN(C(=O)O[C@H]3CCN(C(=O)/C=C/CN(C)C)C3)CC2)c2ncn(C(C)C)c2n1 [SZ-015311, (S,E)-1-(4-(dimethylamino)but-2-enoyl)pyrrolidin-3-yl 4-((3-isopropyl-5-((2-methoxyethyl)amino)-3H-imidazo[4,5-b]pyridin-7-yl)amino)piperidine-1-carboxylate]	99.6	95
CC[C@H](CO)Nc1cc(NC2CCN(C(=O)O[C@H]3CCN(C(=O)/C=C/CN(C)C)C3)CC2)c2ncc(C(C)C)n2n1 [SZ-015317, (S)-1-((E)-4-(dimethylamino)but-2-enoyl)pyrrolidin-3-yl 4-((6-(((R)-1-hydroxybutan-2-yl)amino)-3-isopropylimidazo[1,2-b]pyridazin-8-yl)amino) piperidine-1-carboxylate]	429	237
CC(C)c1cc(NC2CCN(C(=O)O[C@H]3CCN(C(=O)/C=C/CN(C)C)C3)CC2)c2ncn(C(C)C)c2n1 [SZ-015319, (S,E)-1-(4-(dimethylamino)but-2-enoyl)pyrrolidin-3-yl 4-((3,5-diisopropyl-3H-imidazo[4,5-b]pyridin-7-yl)amino)piperidine-1-carboxylate]	72.5	50.5
CC(C)Nc1nc(NC2CCN(C(=O)O[C@H]3CCN(C(=O)/C=C/CN(C)C)C3)CC2)c2ncc(C(C)C)n2n1 [SZ-015328, (S,E)-1-(4-(dimethylamino)but-2-enoyl)pyrrolidin-3-yl 4-((7-isopropyl-2-(isopropylamino)imidazo[2,1-f][1,2,4]triazin-4-yl)amino)piperidine-1-carboxylate]	110	252
CC(C)c1cnn2c(NC3CCN(C(=O)O[C@H]4CCN(C(=O)/C=C/CN(C)C)C4)CC3)nc(NC3CC3)nc12 [SZ-015331, (S,E)-1-(4-(dimethylamino)but-2-enoyl)pyrrolidin-3-yl 4-((2-(cyclopropylamino)-8-isopropylpyrazolo[1,5-a][1,3,5]triazin-4-yl)amino)piperidine-1-carboxylate]	36.7	70.1
CC(C)Oc1nc(NC2CCN(C(=O)O[C@H]3CCN(C(=O)/C=C/CN(C)C)C3)CC2)n2ncc(C(C)C)c2n1 [SZ-015332, (S,E)-1-(4-(dimethylamino)but-2-enoyl)pyrrolidin-3-yl 4-((2-isopropoxy-8-isopropylpyrazolo[1,5-a][1,3,5]triazin-4-yl)amino)piperidine-1-carboxylate]	44.7	51.5

Reference: US20230115907A1, “HETEROCYCLIC COMPOUND AND PHARMACEUTICAL COMPOSITION, PREPARATION METHOD, INTERMEDIATE AND USE THEREOF” (EVOPOINT BIOSCIENCES CO., LTD., priority 2019, published 2023)
